The numbers were not newly measured in patent US20220161013A1, “IMPROVED DELIVERY OF DRUG THERAPY TO THE CNS BY ULTRASOUND-BASED OPENING OF THE BLOOD-BRAIN BARRIER” (NORTHWESTERN UNIVERSITY, priority 2019, published 2022), which cites them from elsewhere.

Structures are written as SMILES.

Data set [1] deals with p-Glycoprotein (Homo sapiens, UniProt P08183).
The subject of data set [2] is orthotropic glioma xenograft model. Particulars: with valspodar, nude mice.
For data set [3] the following is noted: local convection-enhanced delivery.

p-Glycoprotein, sequence (P08183 whole entry): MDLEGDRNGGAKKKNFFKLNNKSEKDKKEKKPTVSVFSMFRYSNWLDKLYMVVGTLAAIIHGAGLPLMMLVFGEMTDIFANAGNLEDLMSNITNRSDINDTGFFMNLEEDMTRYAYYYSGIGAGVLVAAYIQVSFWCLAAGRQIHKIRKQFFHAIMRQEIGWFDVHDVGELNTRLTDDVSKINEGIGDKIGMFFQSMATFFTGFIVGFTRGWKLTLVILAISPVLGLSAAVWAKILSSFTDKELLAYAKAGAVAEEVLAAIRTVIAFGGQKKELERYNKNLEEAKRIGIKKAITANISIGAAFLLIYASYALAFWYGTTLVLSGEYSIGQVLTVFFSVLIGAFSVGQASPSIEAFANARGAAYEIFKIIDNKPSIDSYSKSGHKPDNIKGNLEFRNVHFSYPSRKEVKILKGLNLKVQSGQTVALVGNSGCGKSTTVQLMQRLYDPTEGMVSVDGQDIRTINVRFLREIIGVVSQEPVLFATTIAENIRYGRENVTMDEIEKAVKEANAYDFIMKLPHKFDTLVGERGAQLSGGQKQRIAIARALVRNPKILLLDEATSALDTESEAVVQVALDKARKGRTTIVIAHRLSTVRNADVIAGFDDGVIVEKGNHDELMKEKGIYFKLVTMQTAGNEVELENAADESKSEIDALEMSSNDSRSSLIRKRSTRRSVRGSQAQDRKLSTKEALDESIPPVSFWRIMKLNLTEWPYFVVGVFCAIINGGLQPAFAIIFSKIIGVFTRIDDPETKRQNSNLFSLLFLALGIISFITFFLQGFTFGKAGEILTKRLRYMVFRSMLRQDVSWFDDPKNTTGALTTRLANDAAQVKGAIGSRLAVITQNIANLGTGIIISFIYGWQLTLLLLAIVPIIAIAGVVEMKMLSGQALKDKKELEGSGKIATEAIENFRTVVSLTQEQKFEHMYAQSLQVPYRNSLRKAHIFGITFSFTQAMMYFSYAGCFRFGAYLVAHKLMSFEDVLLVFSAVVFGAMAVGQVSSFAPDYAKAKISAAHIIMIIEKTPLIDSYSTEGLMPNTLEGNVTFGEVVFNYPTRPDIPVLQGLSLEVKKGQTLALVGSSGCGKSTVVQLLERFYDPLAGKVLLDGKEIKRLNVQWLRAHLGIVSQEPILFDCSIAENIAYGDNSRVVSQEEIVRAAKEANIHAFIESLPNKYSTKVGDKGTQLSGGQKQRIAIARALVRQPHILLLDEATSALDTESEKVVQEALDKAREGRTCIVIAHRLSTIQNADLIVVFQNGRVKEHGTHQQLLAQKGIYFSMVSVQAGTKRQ

Regarding `CC(=O)O[C@H]1C(=O)[C@@]2(C)[C@H]([C@H](OC(=O)c3ccccc3)[C@]3(O)C[C@H](OC(=O)[C@H](O)[C@@H](NC(=O)c4ccccc4)c4ccccc4)C(C)=C1C3(C)C)[C@]1(OC(C)=O)CO[C@@H]1C[C@@H]2O` [PTX, paclitaxel], the “substrate for the multidrug resistance protein p-Glycoprotein” value in data set [1] is “substrate”. Besides, the “effectiveness when using p-Glycoprotein blocker valspodar” value in data set [2] is given as “significant increased effectiveness”. For the same compound, the response rate in data set [3] is on record as 73%.
